Experimental data taken from PMC8213421 (CPT: Pharmacometrics & Systems Pharmacology, 2021).

Legend:
CYP1A2 mRNA = assay: CYP induction in cultured human hepatocytes
[1] = Venetoclax observed clinical PK; format: in vivo; conditions: human, plasma, oral
CYP3A4 [2] = conditions: multiple doses of rifampicin 600 mg q.d.; cited from earlier work
[3] = cited from earlier work
CYP2B6 mRNA = assay: CYP induction in cultured human hepatocytes
OAT3 [4] = target: T1, OAT3 (Homo sapiens, UniProt Q8TCC7); conditions: cited from earlier work
T1 sequence (Q8TCC7 1-542): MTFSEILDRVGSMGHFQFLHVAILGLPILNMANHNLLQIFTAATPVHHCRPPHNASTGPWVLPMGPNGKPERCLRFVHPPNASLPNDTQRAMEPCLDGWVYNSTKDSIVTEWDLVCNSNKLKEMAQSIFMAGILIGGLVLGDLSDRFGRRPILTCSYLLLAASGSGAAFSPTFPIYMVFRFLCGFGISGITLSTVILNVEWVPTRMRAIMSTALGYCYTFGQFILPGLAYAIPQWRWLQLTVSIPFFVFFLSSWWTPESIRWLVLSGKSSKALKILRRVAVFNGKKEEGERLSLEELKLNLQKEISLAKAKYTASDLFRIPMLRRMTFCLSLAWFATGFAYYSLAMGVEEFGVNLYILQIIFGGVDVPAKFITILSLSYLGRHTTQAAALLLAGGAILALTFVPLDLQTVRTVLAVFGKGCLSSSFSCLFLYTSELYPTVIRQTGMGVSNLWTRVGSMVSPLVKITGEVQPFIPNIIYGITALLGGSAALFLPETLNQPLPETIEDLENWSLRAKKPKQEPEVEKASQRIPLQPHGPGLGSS

CYP3A4 [5] = conditions: human, in vivo, 600 mg, cited from earlier work
OATP1B1 = target: T2, OATP1B1 (Homo sapiens, UniProt Q9Y6L6); assay: Transporter inhibition in transfected HEK293 cells; format: cell-based
T2 sequence (Q9Y6L6 1-691): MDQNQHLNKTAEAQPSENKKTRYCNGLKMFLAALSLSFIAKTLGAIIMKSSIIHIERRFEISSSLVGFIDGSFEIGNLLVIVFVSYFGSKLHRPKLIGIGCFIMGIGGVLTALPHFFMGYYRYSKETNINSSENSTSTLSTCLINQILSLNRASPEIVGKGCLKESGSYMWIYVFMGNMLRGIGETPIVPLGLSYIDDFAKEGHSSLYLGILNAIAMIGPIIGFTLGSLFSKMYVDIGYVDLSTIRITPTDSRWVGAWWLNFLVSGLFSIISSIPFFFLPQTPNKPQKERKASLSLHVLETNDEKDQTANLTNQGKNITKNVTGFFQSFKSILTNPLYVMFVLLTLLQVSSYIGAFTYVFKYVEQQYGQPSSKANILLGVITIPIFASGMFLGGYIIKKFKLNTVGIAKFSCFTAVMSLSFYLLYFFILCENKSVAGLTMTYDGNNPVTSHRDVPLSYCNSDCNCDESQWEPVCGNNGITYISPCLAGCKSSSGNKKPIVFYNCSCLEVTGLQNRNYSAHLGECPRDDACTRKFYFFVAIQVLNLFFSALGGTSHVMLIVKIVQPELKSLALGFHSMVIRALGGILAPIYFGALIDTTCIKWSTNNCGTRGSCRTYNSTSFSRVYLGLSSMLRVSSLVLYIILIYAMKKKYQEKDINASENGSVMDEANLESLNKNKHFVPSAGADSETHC

CYP2C19 mRNA = assay: CYP induction in cultured human hepatocytes; conditions: all three hepatocyte cultures
OCT2 = target: T3, OCT2 (Homo sapiens, UniProt O15244); assay: Transporter inhibition in transfected HEK293 cells; format: cell-based
T3 sequence (O15244 1-555): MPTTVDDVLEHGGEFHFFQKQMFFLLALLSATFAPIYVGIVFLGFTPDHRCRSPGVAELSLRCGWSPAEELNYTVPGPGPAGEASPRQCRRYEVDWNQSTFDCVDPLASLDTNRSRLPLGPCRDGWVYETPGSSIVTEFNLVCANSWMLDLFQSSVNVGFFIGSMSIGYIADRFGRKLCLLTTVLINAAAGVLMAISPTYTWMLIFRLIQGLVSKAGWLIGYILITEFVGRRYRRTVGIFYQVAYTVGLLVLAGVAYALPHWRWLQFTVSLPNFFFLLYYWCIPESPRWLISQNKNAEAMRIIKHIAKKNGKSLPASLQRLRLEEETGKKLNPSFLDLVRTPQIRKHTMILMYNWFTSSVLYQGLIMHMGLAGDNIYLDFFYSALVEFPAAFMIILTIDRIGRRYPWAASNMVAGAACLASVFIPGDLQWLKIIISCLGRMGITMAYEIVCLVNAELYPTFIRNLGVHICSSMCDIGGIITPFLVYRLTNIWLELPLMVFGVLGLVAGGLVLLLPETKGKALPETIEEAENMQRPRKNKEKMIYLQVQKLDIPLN

CYP3A4 [6] = conditions: ivosidenib PBPK model; cited from earlier work
OATP1B3 = target: T4, OATP1B3 (Homo sapiens, UniProt Q9NPD5); assay: Transporter inhibition in transfected HEK293 cells; format: cell-based
T4 sequence (Q9NPD5 1-702): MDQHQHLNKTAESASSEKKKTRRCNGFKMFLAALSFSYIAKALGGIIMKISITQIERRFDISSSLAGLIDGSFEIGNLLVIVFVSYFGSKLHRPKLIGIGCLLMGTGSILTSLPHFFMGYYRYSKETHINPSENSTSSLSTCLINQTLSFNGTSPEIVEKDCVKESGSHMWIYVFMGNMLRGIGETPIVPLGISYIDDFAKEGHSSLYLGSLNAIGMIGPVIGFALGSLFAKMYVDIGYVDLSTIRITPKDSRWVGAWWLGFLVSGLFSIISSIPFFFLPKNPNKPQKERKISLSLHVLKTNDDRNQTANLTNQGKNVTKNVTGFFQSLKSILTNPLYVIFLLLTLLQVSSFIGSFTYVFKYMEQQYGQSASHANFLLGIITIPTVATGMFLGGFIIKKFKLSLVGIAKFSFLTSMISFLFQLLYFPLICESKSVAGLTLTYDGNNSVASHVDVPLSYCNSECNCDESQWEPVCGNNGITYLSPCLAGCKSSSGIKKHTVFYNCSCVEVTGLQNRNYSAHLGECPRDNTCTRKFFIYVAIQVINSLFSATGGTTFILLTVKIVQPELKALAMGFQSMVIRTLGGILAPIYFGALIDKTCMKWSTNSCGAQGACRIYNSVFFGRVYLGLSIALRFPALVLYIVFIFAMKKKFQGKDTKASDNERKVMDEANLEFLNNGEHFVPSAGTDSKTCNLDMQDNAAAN

OAT1 = target: T5, OAT1 (Homo sapiens, UniProt Q4U2R8); assay: Transporter inhibition in transfected HEK293 cells; format: cell-based
T5 sequence (Q4U2R8 1-563): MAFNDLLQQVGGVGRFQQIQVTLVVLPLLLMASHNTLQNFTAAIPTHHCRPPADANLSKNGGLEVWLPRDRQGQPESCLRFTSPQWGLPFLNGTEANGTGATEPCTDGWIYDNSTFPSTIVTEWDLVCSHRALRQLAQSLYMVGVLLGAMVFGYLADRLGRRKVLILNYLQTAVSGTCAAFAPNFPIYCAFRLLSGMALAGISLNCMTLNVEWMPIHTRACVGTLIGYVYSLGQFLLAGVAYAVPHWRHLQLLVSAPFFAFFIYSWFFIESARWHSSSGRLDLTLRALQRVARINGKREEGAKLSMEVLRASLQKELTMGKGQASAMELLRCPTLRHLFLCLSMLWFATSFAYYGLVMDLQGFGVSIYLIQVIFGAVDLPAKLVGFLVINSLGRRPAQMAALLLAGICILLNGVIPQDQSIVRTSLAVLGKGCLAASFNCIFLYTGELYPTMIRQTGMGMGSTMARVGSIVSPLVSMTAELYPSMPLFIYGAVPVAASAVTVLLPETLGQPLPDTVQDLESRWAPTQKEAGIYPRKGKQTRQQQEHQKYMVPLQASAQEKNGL

human P‐gp = human P‐gp (Homo sapiens, UniProt P08183); assay: P-gp inhibition assay, bidirectional digoxin permeability in Caco-2 cells; format: cell-based
CYP3A4 [7] = assay: PBPK; set-up: species or system human; conditions: based on simulated midazolam results
CYP3A4 mRNA [8] = assay: in vitro; conditions: human
CYP2C9 mRNA = assay: CYP induction in cultured human hepatocytes
CYP2C8 mRNA = assay: CYP induction in cultured human hepatocytes
OAT3 [9] = target: T1, OAT3; assay: Transporter inhibition in transfected HEK293 cells; format: cell-based
CYP3A4 [10] = conditions: patients, cited from earlier work
CYP3A4 mRNA [11] = conditions: human, hepatocytes
OAT3 [12] = conditions: read-out: OAT3 Ki; lowest reported value; cited from earlier work
OATP1B1/1B3 = conditions: hepatic uptake, model; cited from earlier work
NTCP = conditions: hepatic uptake, model; cited from earlier work
[13] = human, cultured human hepatocytes

human P‐gp, sequence (P08183 whole entry): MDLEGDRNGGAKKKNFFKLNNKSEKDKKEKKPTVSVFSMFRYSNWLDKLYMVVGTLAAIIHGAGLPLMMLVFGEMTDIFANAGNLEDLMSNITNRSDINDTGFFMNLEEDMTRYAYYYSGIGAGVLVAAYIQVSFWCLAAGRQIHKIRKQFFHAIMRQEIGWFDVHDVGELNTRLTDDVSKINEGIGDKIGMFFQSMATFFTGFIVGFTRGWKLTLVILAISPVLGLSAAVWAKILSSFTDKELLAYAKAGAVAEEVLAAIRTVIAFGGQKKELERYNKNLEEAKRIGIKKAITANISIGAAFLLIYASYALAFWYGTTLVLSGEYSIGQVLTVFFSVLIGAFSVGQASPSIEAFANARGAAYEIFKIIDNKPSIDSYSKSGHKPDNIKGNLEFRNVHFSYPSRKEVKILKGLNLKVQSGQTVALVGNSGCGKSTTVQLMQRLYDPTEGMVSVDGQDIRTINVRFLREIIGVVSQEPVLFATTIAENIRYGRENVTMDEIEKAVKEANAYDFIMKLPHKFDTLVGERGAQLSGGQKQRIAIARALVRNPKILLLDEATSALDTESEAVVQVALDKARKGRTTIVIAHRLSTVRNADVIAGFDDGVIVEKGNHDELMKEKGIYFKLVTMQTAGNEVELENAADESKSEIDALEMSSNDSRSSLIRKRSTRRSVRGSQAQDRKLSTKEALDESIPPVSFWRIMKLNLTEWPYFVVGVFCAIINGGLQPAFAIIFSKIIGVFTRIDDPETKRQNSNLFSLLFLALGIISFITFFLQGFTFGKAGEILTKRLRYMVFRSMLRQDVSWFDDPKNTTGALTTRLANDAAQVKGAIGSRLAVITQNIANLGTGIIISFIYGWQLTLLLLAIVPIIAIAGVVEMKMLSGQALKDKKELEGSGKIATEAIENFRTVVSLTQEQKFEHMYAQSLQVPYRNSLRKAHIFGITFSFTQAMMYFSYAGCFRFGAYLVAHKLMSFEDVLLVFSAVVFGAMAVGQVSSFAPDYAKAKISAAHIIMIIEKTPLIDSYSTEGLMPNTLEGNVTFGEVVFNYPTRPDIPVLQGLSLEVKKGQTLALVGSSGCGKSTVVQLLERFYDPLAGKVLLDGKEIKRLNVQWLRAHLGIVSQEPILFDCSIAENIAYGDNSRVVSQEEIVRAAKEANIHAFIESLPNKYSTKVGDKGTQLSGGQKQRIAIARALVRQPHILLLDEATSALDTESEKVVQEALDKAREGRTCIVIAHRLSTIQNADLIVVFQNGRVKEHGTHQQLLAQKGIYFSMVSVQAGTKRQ

COc1ccc2[nH]c([S+]([O-])Cc3ncc(C)c(OC)c3C)nc2c1 (stereo not drawn) [omeprazole, reference compound]
increase in CYP1A2 mRNA levels (CYP1A2 mRNA; prototypical inducer (positive control)): 104 ± 97 fold

CC1(C)CCC(CN2CCN(c3ccc(C(=O)NS(=O)(=O)c4ccc(NCC5CCOCC5)c([N+](=O)[O-])c4)c(Oc4cnc5[nH]ccc5c4)c3)CC2)=C(c2ccc(Cl)cc2)C1 [Venetoclax]
Vd [1]: 0.36 to 1.78 L/kg | decrease of venetoclax AUC (CYP3A4 [2]): ~80% | decrease of venetoclax Cmax (CYP3A4 [2]): ~ 70% | estimated mean Vss/F from clinical data ([3]; patients): 3.67 L/kg | observed mean CL/F ([3]; venetoclax): 14.9 L/h

CCC1(c2ccccc2)C(=O)NC(=O)NC1=O [phenobarbital, reference compound]
increase in CYP2B6 mRNA levels (CYP2B6 mRNA; prototypical inducer (positive control), human hepatocytes): 13 ± 4.7 fold

CN(Cc1cnc2nc(N)nc(N)c2n1)c1ccc(C(=O)N[C@@H](CCC(=O)O)C(=O)O)cc1 [Methotrexate]
reported methotrexate AUCR with probenecid (OAT3 [4]): 1.57 fold

Cc1ncc2n1-c1ccc(Cl)cc1C(c1ccccc1F)=NC2 [Midazolam]
reduction of midazolam AUC, i.v. (CYP3A4 [5]; iv): 51% | reduction of midazolam AUC, oral (CYP3A4 [5]; po): 92%

N#Cc1ccnc(N2C(=O)CC[C@H]2C(=O)N(c2cncc(F)c2)[C@H](C(=O)NC2CC(F)(F)C2)c2ccccc2Cl)c1 [Ivosidenib]
IC50 (OATP1B1): 9.56 µM | effect on CYP2C19 mRNA levels (CYP2C19 mRNA): inconclusive | IC50 (OCT2): > 65 µM | fm (fraction metabolized, CYP3A4) (CYP3A4 [6]): 0.865 | IC50 (OATP1B3): 22.8 µM | IC50 (OAT1): > 65 µM | IC50 (human P‐gp): 19.6 µM | classification as CYP3A4 inducer as per regulatory guidance (CYP3A4 [7]): strong inducer | EC50 (CYP3A4 mRNA [8]): 12.5 ± 9.2 µM | CYP2C9 mRNA mean Emax (CYP2C9 mRNA; human hepatocytes, 3 donors): 3.39 ± 0.63 | EC50 at 72 h (CYP2C9 mRNA; [13]): 3.23 ± 1.04 µM | CYP2C8 mRNA mean Emax (CYP2C8 mRNA; human hepatocytes, 3 donors): 3.79 ± 1.28 | EC50 at 72 h (CYP2C8 mRNA; [13]): 8.1 ± 3.3 µM | IC50 (OAT3 [9]): 0.322 µM | CYP2B6 mRNA mean Emax (CYP2B6 mRNA; human hepatocytes, 3 donors): 2.85 ± 1.53 | EC50 at 72 h (CYP2B6 mRNA; [13]): 2.93 ± 0.65 µM | increase of mean 4β‐OHC levels (CYP3A4 [10]; 500 mg ivosidenib): ~ 199% | increase of 4β‐OHC (CYP3A4 [10]; after 28 days of 100 mg b.i.d. and 100–1200 mg q.d. ivosidenib): up to 371% | CYP1A2 mRNA induction (CYP1A2 mRNA; 3 donors, 0.05-90 μM once daily 3 days): no significant induction | CYP3A4 mRNA mean Emax (CYP3A4 mRNA [11]): 78.2 ± 113

CC(C)c1nc(N(C)S(C)(=O)=O)nc(-c2ccc(F)cc2)c1/C=C/[C@@H](O)C[C@@H](O)CC(=O)O [Rosuvastatin]
relative contribution of OATP1B1/1B3 to uptake of rosuvastatin (OATP1B1/1B3): 65% | relative contribution of NTCP to uptake of rosuvastatin (NTCP): 35%
